Test system: Plasmodium berghei
Assay: Luciferase/luciferin-expressing antifolate-resistant parasites were used to infect a culture of HepG2 cells that were pre-incubated with compounds. Infected hepatocytes emit light due to the luciferase reaction. Assay results are presented as the percent inhibition of light emission compared to control. […]
Type: functional
Details: sporozoite; for IC90: read-out: LUCIFERASE INFECTION ASSAY - IC90

| SMILES | IC90 [µM] | further results |
| --- | --- | --- |
| CC(Sc1ncnc2sc(-c3ccccc3)cc12)C(=O)N1CCNC1=O (stereo not given) | > 10 | IC50 (PBLUC_HILL_SLOPE 3.73, PBLUC_R_SQUARED 0.46, read-out: LUCIFERASE INFECTION ASSAY - IC50): 5.98 µM |
| c1ccc(Oc2ccccc2-c2cn3c(-c4ccncc4)cnc3cn2)cc1 | 8.82 | IC50 (PBLUC_HILL_SLOPE 3.74, PBLUC_R_SQUARED 0.758, read-out: LUCIFERASE INFECTION ASSAY - IC50): 4.9 µM |
| Cc1cc(C(=O)NCCc2cccc(F)c2)c(C)n1C(C)C | 0.0364 | IC50 (PBLUC_HILL_SLOPE 3.76, PBLUC_R_SQUARED 0.418, read-out: LUCIFERASE INFECTION ASSAY - IC50): 0.0203 µM |
| Cc1nc2ccccc2n1CCC(=O)Nc1cccc(C(F)(F)F)c1 | 8.78 | IC50 (PBLUC_HILL_SLOPE 3.83, PBLUC_R_SQUARED 0.29, read-out: LUCIFERASE INFECTION ASSAY - IC50): 4.95 µM |
| O=C(NCCCn1cnc2ccccc21)c1ccccc1Nc1ccccc1 | > 10 | IC50 (PBLUC_HILL_SLOPE 3.77, PBLUC_R_SQUARED 0.592, read-out: LUCIFERASE INFECTION ASSAY - IC50): 7.09 µM |
| COc1cccc(-c2nc3ccc(NC(=O)Nc4ccc5c(c4)OCO5)cn3n2)c1 | > 10 | IC50 (PBLUC_HILL_SLOPE 3.78, PBLUC_R_SQUARED 0.75, read-out: LUCIFERASE INFECTION ASSAY - IC50): 7.06 µM |
| COc1ccc(-c2cc(-c3nnc4n3CCCCC4)c3c(C)nn(-c4ccccc4)c3n2)cc1 | > 10 | IC50 (PBLUC_HILL_SLOPE 3.73, PBLUC_R_SQUARED 0.529, read-out: LUCIFERASE INFECTION ASSAY - IC50): 5.69 µM |
| COc1cc2c(c(OC)c1OC)Cc1cc(OC)c(OC)c(OC)c1C2 | 7.66 | IC50 (PBLUC_HILL_SLOPE 3.89, PBLUC_R_SQUARED 0.32, read-out: LUCIFERASE INFECTION ASSAY - IC50): 4.36 µM |
| CC(=O)c1cccc(-c2cnc3cnc(-c4ccccc4Cl)cn23)c1 | > 9.49 | IC50 (PBLUC_HILL_SLOPE 3.8, PBLUC_R_SQUARED 0.614, read-out: LUCIFERASE INFECTION ASSAY - IC50): 6.8 µM |
| Cc1sc2[nH]c(CSCC(=O)c3cc(C)n(-c4ccc(Br)cc4)c3C)nc(=O)c2c1C | > 10 | IC50 (PBLUC_HILL_SLOPE 3.74, PBLUC_R_SQUARED 0.361, read-out: LUCIFERASE INFECTION ASSAY - IC50): 6.79 µM |
| Cc1cccc(N(C)c2ccnc3c(-c4ccc(C(=O)NC5CC5)cc4)cnn23)c1 | 6.33 | IC50 (PBLUC_HILL_SLOPE 3.89, PBLUC_R_SQUARED 0.384, read-out: LUCIFERASE INFECTION ASSAY - IC50): 3.6 µM |
| Cc1nn(-c2ccc(C(=O)N(Cc3ccccc3)Cc3nc(=O)c4ccccc4[nH]3)cc2)c(C)c1Cl | 3.52 | IC50 (PBLUC_HILL_SLOPE 3.8, PBLUC_R_SQUARED 0.516, read-out: LUCIFERASE INFECTION ASSAY - IC50): 1.98 µM |
| CCn1c2ccccc2c2cc(NC(=O)COC(=O)CC3CCCC3)ccc21 | 9.1 | IC50 (PBLUC_HILL_SLOPE 3.89, PBLUC_R_SQUARED 0.506, read-out: LUCIFERASE INFECTION ASSAY - IC50): 5.17 µM |
| CCOc1ccccc1C=C(c1nc2ccccc2s1)c1nc2ccccc2s1 | 9.81 | IC50 (PBLUC_HILL_SLOPE 3.78, PBLUC_R_SQUARED 0.344, read-out: LUCIFERASE INFECTION ASSAY - IC50): 5.48 µM |
| CN(Cc1ccc2c(c1)OCO2)c1ccc(C(=O)NC2CC2)cn1 | > 10 | IC50 (PBLUC_HILL_SLOPE 3.82, PBLUC_R_SQUARED 0.17, read-out: LUCIFERASE INFECTION ASSAY - IC50): 6.72 µM |
| COc1ccnc(N2CCN(C(c3ccccc3)c3ccccc3)CC2)c1C#N | > 8.58 | IC50 (PBLUC_HILL_SLOPE 3.87, PBLUC_R_SQUARED 0.686, read-out: LUCIFERASE INFECTION ASSAY - IC50): 5.89 µM |
| Cc1cc(C)cc(NC(=S)NC2CCCC(C)C2C)c1 (stereo not given) | 9.4 | IC50 (PBLUC_HILL_SLOPE 3.85, PBLUC_R_SQUARED 0.565, read-out: LUCIFERASE INFECTION ASSAY - IC50): 5.32 µM |
| FC(F)(F)c1cc(NCc2ccc(Cl)cc2)nc(-c2ccccn2)n1 | > 9.05 | IC50 (PBLUC_HILL_SLOPE 3.87, PBLUC_R_SQUARED 0.118, read-out: LUCIFERASE INFECTION ASSAY - IC50): 5.66 µM |
| CC(C)c1ccc(CN2CCN(C(=O)CNC(=O)c3ccc(Br)o3)CC2)cc1 | > 10 | IC50 (PBLUC_HILL_SLOPE 3.89, PBLUC_R_SQUARED 0.276, read-out: LUCIFERASE INFECTION ASSAY - IC50): 9.05 µM |
| COc1cc(NC(=O)N2CCc3nc(Nc4cc(C)cc(C)c4)ncc3C2)cc(OC)c1OC | > 7.12 | IC50 (PBLUC_HILL_SLOPE 3.8, PBLUC_R_SQUARED 0.0984, read-out: LUCIFERASE INFECTION ASSAY - IC50): 4.59 µM |

| SMILES | IC90 [µM] | further results |
| --- | --- | --- |
| O=C(Cn1cnc2c(cnn2-c2ccccc2[N+](=O)[O-])c1=O)Nc1ccc(OCc2ccccc2)cc1 | > 10 | IC50 (PBLUC_HILL_SLOPE 3.88, PBLUC_R_SQUARED 0.658, read-out: LUCIFERASE INFECTION ASSAY - IC50): 7.44 µM |
| O=C(CCc1ccc(O)cc1)NNC(=S)Nc1ccc(Cl)c(Cl)c1 | > 8.59 | IC50 (PBLUC_HILL_SLOPE 3.89, PBLUC_R_SQUARED 0.475, read-out: LUCIFERASE INFECTION ASSAY - IC50): 5.88 µM |
| CC(C)CN1C(=O)N(C)C(=O)C12CCN(Cc1cc3ccccc3s1)CC2 | > 8.56 | IC50 (PBLUC_HILL_SLOPE 3.77, PBLUC_R_SQUARED 0.71, read-out: LUCIFERASE INFECTION ASSAY - IC50): 6.78 µM |
| CC(C)N(C(C)C)S(=O)(=O)c1ccc(NNC(=O)Nc2ccccc2F)nc1 | > 10 | IC50 (PBLUC_HILL_SLOPE 3.78, PBLUC_R_SQUARED 0.132, read-out: LUCIFERASE INFECTION ASSAY - IC50): 6.19 µM |
| CCCn1c(N)c(C(=O)COC(=O)C2(c3ccc(F)cc3)CCCC2)c(=O)[nH]c1=O | 8.39 | IC50 (PBLUC_HILL_SLOPE 3.75, PBLUC_R_SQUARED 0.743, read-out: LUCIFERASE INFECTION ASSAY - IC50): 4.66 µM |
| O=C(CN1CCN(C(=O)/C=C/c2sc3ccccc3c2Cl)CC1)NC1CC1 | 8.7 | IC50 (PBLUC_HILL_SLOPE 3.79, PBLUC_R_SQUARED 0.282, read-out: LUCIFERASE INFECTION ASSAY - IC50): 4.87 µM |
| Clc1ccc(Nc2nccc3nc(-c4ccccc4)[nH]c23)cc1 | > 10 | IC50 (PBLUC_HILL_SLOPE 3.81, PBLUC_R_SQUARED 0.353, read-out: LUCIFERASE INFECTION ASSAY - IC50): 6.7 µM |
| NC(=O)C(C(=O)/C=C/c1c(Cl)cccc1Cl)=C1SCS1 | > 10 | IC50 (PBLUC_HILL_SLOPE 3.86, PBLUC_R_SQUARED 0.315, read-out: LUCIFERASE INFECTION ASSAY - IC50): 6.18 µM |
| CCCCN(C)S(=O)(=O)c1ccc(NC(=O)c2cccc(C(F)(F)F)c2)cc1 | > 10 | IC50 (PBLUC_HILL_SLOPE 3.75, PBLUC_R_SQUARED 0.618, read-out: LUCIFERASE INFECTION ASSAY - IC50): 5.87 µM |
| CC(C)(C)c1cc(NC(=O)CN2CCN(CCOc3ccccc3)CC2)n(-c2ccccc2)n1 | > 10 | IC50 (PBLUC_HILL_SLOPE 3.74, PBLUC_R_SQUARED 0.753, read-out: LUCIFERASE INFECTION ASSAY - IC50): 6.22 µM |
| COc1ccc(-c2nc3ccc(NC(=O)Nc4ccc(F)c(Cl)c4)cn3n2)cc1 | 8.19 | IC50 (PBLUC_HILL_SLOPE 3.84, PBLUC_R_SQUARED 0.577, read-out: LUCIFERASE INFECTION ASSAY - IC50): 4.62 µM |
| CCc1nc(N2CCN(C(=O)c3ccco3)CC2)c2ccc(Cl)cc2n1 | > 8.9 | IC50 (PBLUC_HILL_SLOPE 3.74, PBLUC_R_SQUARED 0.373, read-out: LUCIFERASE INFECTION ASSAY - IC50): 6.91 µM |
| c1ccc(OCCCN2CCC(c3nc4ccccc4s3)CC2)cc1 | > 9.36 | IC50 (PBLUC_HILL_SLOPE 3.81, PBLUC_R_SQUARED 0.48, read-out: LUCIFERASE INFECTION ASSAY - IC50): 7.8 µM |
| CN(c1ccccc1)c1ccc(/C=N/NC(=O)c2ccc3c(=O)n4c(nc3c2)CCCCC4)cc1 | > 10 | IC50 (PBLUC_HILL_SLOPE 3.8, PBLUC_R_SQUARED 0.483, read-out: LUCIFERASE INFECTION ASSAY - IC50): 6.28 µM |
| CCCCOC1(c2ccc(C)cc2)N=C(SCC(=O)NCC(C)C)NN=C1c1ccc(C)cc1 (stereo not given) | > 10 | IC50 (PBLUC_HILL_SLOPE 3.83, PBLUC_R_SQUARED 0.417, read-out: LUCIFERASE INFECTION ASSAY - IC50): 6.12 µM |
| O=C(Nc1ccc(Oc2ccccc2)cc1)c1noc(-c2ccccc2)n1 | 6.61 | IC50 (PBLUC_HILL_SLOPE 3.74, PBLUC_R_SQUARED 0.217, read-out: LUCIFERASE INFECTION ASSAY - IC50): 3.67 µM |
| O=C(CN1CCN(CCOc2ccccc2)CC1)Nc1cc(C(F)(F)F)ccc1Cl | > 10 | IC50 (PBLUC_HILL_SLOPE 3.77, PBLUC_R_SQUARED 0.518, read-out: LUCIFERASE INFECTION ASSAY - IC50): 7.08 µM |
| Cc1nc(NCCCc2n[nH]c(N)c2C#N)c2c(-c3ccccc3)csc2n1 | 9.77 | IC50 (PBLUC_HILL_SLOPE 3.76, PBLUC_R_SQUARED 0.424, read-out: LUCIFERASE INFECTION ASSAY - IC50): 5.44 µM |
| CCOC(=O)c1c(C)c(C)n(Cc2ccccc2)c1NC(=O)c1ccccc1 | > 8.77 | IC50 (PBLUC_HILL_SLOPE 3.81, PBLUC_R_SQUARED 0.298, read-out: LUCIFERASE INFECTION ASSAY - IC50): 6.38 µM |
| Oc1cccc(-c2nccc3n[nH]c(-c4cccc(F)c4)c23)c1 | > 10 | IC50 (PBLUC_HILL_SLOPE 3.75, PBLUC_R_SQUARED 0.113, read-out: LUCIFERASE INFECTION ASSAY - IC50): 6.03 µM |
